From ChEMBL document CHEMBL5678810

How the values were obtained:
[1] = target: T1, Dual specificity protein kinase TTK (Homo sapiens) (UniProt P33981); test: Inhibition of T7 bacteriophage fused human TTK at 10 uM by KINOMEscan analysis relative to control
T1 sequence (whole entry): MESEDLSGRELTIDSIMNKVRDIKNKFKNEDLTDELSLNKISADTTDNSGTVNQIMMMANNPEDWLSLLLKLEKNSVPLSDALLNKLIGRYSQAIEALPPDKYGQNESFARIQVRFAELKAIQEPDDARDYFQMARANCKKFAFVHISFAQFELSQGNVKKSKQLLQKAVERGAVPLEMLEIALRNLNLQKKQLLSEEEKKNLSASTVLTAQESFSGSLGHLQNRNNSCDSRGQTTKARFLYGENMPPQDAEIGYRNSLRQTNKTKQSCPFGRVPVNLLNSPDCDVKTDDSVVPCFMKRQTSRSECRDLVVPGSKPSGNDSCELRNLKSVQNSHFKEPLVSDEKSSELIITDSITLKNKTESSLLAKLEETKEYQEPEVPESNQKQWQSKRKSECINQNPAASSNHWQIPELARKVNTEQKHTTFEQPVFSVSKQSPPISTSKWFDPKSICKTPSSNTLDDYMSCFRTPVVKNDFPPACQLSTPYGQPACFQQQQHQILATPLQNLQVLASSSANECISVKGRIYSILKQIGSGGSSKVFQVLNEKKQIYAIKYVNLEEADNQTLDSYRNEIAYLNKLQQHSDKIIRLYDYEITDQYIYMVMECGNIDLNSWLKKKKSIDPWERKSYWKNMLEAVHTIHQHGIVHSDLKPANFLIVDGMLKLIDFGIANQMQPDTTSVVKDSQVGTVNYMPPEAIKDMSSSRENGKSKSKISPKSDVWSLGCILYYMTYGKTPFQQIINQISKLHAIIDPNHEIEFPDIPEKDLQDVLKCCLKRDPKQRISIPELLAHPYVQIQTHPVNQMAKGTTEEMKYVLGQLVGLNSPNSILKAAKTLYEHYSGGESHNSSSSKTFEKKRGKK

[2] = target: Ribosomal protein S6 kinase alpha-6 (Homo sapiens) (UniProt Q9UK32); test: Inhibition of T7 bacteriophage fused human C-terminal RSK4 Kinase domain-2 at 10 uM by KINOMEscan analysis relative to control
[3] = target: Tyrosine-protein kinase Tec (Homo sapiens) (UniProt P42680); test: Inhibition of T7 bacteriophage fused human TEC at 10 uM by KINOMEscan analysis relative to control
[4] = target: STE20-like serine/threonine-protein kinase (Homo sapiens) (UniProt Q9H2G2); test: Inhibition of T7 bacteriophage fused human SLK at 10 uM by KINOMEscan analysis relative to control
[5] = target: Ribosomal protein S6 kinase alpha-2 (Homo sapiens) (UniProt Q15349); test: Inhibition of T7 bacteriophage fused human C-terminal RSK3 Kinase domain-2 at 10 uM by KINOMEscan analysis relative to control
[6] = target: Peripheral plasma membrane protein CASK (Homo sapiens) (UniProt O14936); test: Inhibition of T7 bacteriophage fused human CASK at 10 uM by KINOMEscan analysis relative to control
[7] = target: Dual specificity mitogen-activated protein kinase kinase 5 (Homo sapiens, UniProt Q13163); test: Inhibition of GST-tagged MEK5 (unknown origin) expressed in baculovirus expression system incubated for 90 mins in presence of ATP by PKLight ATP Detection Reagent based analysis
[8] = target: Mitogen-activated protein kinase 7 (Homo sapiens, UniProt Q13164); test: Inhibition of GST-tagged ERK5 (unknown origin) expressed in baculovirus expression system incubated for 90 mins in presence of ATP by PKLight ATP Detection Reagent based analysis
Mitogen-activated protein kinase 7, sequence (Q13164 whole entry): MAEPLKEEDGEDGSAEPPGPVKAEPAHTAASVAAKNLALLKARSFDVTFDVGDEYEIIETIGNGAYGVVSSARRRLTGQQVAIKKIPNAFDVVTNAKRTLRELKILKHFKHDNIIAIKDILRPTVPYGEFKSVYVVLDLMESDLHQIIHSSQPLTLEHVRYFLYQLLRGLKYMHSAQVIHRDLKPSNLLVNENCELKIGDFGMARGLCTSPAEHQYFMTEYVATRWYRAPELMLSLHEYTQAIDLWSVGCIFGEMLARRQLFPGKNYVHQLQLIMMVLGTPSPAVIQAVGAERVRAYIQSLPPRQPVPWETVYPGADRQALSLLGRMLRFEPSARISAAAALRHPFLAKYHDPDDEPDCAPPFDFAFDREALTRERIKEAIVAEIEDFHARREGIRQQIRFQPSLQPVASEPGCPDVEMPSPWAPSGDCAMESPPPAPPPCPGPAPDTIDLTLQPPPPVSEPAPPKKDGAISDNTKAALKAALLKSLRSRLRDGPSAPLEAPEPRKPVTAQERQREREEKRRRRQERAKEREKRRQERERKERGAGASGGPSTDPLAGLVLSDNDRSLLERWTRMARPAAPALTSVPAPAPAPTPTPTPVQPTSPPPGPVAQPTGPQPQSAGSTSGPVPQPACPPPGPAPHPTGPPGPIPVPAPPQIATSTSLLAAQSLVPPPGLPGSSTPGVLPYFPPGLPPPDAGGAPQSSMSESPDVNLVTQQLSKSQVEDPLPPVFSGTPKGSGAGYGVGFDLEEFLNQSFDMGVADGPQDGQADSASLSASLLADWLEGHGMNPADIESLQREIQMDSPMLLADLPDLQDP

Peripheral plasma membrane protein CASK (Homo sapiens), sequence (O14936 whole entry, looked up, the tested form may be a part): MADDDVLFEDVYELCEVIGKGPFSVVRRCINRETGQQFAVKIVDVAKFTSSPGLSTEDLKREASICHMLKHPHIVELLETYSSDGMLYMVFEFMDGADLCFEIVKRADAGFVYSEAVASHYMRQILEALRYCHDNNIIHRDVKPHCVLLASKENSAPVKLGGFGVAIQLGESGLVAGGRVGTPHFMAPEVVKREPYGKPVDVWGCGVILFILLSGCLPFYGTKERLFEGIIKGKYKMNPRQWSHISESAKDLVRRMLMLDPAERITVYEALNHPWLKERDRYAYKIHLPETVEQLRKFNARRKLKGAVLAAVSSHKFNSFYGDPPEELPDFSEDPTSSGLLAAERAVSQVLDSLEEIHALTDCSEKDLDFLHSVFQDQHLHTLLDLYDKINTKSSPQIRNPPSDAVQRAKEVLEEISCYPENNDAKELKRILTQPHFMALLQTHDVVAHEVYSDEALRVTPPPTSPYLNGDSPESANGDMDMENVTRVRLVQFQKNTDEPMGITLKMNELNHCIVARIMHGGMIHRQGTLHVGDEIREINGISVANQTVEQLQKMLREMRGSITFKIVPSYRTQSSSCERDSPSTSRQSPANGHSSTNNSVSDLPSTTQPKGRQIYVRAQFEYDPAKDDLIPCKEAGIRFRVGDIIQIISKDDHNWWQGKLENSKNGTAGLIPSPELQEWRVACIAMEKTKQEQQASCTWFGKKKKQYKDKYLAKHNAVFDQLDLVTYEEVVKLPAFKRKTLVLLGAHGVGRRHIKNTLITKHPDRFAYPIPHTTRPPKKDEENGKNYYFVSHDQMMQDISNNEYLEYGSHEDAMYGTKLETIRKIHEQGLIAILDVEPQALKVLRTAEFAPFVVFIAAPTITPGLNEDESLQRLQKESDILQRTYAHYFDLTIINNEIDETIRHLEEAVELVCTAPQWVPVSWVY
STE20-like serine/threonine-protein kinase (Homo sapiens), sequence (Q9H2G2 whole entry, looked up, the tested form may be a part): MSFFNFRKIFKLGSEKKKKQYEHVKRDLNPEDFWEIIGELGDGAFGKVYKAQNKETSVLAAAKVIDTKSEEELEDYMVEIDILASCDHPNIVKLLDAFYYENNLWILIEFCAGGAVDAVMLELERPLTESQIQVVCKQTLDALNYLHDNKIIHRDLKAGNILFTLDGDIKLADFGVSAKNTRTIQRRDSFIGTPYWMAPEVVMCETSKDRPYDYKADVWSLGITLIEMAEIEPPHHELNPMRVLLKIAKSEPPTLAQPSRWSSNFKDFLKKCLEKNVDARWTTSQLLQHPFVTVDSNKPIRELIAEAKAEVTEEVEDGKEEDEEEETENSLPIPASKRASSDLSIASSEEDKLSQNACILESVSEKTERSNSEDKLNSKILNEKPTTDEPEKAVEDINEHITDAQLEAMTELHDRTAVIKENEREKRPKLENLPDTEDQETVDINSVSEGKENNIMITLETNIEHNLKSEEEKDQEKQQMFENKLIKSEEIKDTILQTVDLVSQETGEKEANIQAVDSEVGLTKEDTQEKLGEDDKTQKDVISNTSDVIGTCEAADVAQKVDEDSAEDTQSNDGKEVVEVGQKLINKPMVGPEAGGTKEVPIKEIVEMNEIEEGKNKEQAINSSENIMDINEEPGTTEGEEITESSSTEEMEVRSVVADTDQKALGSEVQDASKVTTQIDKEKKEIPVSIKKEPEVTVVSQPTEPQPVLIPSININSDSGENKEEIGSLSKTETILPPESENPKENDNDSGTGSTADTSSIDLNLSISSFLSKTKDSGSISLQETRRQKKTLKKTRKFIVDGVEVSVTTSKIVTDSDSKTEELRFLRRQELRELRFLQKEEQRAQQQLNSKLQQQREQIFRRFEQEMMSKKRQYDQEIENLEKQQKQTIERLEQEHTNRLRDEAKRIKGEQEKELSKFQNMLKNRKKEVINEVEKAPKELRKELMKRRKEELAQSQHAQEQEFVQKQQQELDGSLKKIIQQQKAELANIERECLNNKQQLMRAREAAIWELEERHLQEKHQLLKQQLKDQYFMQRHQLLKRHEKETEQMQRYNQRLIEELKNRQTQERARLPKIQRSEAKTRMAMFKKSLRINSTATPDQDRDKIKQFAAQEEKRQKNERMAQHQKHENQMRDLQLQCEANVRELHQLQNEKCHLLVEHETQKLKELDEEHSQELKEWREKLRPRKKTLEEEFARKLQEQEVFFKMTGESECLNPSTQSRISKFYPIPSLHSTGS
Dual specificity mitogen-activated protein kinase kinase 5, sequence (Q13163 whole entry): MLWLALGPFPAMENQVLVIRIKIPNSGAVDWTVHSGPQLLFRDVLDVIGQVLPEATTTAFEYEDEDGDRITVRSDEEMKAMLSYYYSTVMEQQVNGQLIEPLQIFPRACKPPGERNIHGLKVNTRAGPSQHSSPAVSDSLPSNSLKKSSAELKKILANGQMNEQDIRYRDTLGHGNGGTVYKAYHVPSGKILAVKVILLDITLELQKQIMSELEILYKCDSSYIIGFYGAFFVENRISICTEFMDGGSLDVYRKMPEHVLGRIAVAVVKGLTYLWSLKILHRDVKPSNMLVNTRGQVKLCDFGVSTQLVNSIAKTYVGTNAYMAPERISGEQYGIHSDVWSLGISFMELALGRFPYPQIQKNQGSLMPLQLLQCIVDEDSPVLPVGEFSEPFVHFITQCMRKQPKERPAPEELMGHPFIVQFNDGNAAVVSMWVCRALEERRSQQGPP
Tyrosine-protein kinase Tec (Homo sapiens), sequence (P42680 whole entry, looked up, the tested form may be a part): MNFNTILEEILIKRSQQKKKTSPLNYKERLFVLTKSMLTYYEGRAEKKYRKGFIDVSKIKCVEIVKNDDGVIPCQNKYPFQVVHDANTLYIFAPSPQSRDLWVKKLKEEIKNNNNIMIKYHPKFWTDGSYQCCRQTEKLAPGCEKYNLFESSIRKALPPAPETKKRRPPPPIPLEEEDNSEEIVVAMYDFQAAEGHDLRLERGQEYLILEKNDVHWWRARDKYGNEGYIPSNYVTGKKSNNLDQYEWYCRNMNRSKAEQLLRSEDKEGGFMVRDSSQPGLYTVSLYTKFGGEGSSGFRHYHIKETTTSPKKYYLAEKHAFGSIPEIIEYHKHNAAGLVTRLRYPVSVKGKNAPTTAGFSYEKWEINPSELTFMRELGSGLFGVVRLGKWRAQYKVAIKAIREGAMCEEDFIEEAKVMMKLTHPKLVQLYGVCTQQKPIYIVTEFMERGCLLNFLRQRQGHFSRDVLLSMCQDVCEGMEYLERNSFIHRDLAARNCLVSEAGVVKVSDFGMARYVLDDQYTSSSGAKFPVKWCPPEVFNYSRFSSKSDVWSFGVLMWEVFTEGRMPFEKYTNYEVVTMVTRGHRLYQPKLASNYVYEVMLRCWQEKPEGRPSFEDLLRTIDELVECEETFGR
Ribosomal protein S6 kinase alpha-2 (Homo sapiens), sequence (Q15349 whole entry, the tested form may be a part): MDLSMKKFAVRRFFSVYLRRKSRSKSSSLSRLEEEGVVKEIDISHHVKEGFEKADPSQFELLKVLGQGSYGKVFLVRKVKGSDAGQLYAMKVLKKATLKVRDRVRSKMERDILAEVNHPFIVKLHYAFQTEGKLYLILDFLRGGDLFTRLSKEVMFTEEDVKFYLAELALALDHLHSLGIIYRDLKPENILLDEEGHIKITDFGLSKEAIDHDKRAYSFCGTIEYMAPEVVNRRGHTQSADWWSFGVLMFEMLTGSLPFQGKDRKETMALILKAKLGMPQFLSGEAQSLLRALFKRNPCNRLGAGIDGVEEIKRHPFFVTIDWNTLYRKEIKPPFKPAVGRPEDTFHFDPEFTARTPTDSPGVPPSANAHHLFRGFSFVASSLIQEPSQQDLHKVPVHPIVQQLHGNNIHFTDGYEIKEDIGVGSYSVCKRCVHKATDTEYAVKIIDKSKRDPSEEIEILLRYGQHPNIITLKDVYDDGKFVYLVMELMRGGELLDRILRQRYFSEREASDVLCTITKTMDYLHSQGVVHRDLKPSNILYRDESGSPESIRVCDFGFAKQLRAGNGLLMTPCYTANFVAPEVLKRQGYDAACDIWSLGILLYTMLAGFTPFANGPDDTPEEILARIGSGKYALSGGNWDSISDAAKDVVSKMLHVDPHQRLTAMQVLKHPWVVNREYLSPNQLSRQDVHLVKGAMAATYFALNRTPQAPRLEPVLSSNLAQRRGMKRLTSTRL

| SMILES | inhibition [1] | inhibition [2] | inhibition [3] | inhibition [4] | inhibition [5] | inhibition [6] | IC50 [7] | IC50 [8] |
| --- | --- | --- | --- | --- | --- | --- | --- | --- |
| COc1cc(C(=O)N2CCC(N3CCN(C)CC3)CC2)ccc1Nc1ncc2c(n1)N1CCc3cccc(c31)C(=O)N2C | 46% | 5.2% | 100% | 49% | 13% | 100% | – | – |
| CN(C)Cc1cccc(N/C(=C2\C(=O)Nc3cc(C(N)=O)ccc32)c2ccccc2)c1 | – | – | – | – | – | – | 4.3 nM | 810 nM |
